What was measured:
[1] = test system: blackgrass; experiment: Test B pre/postemergence blackgrass; format: in vivo, Alopecurus myosuroides
Procedure, shortened: (§1)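 Response is a visual 0-to-10 score relative to untreated plants, where 0 means no effect and 10 means complete control, taken twelve to sixteen days after application. Treatments went onto soil at planting and onto foliage of 1- to 4-leaf plants, using a surfactant-containing non-phytotoxic solvent.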

[2] = test system: surinam grass; experiment: Test B pre/postemergence surinam grass; format: in vivo, Brachiaria decumbens
Procedure, shortened: as §1

[3] = test system: cocklebur; experiment: Test B pre/postemergence cocklebur; format: in vivo, Xanthium strumarium
Procedure, shortened: as §1

[4] = test system: corn; experiment: Test B pre/postemergence corn; format: in vivo, Zea mays
Procedure, shortened: as §1

[5] = test system: crabgrass; experiment: Test B pre/postemergence crabgrass; format: in vivo, Digitaria sanguinalis
Procedure, shortened: as §1

[6] = test system: giant foxtail; experiment: Test B pre/postemergence giant foxtail; format: in vivo, Setaria faberii
Procedure, shortened: as §1

[7] = test system: morningglory; experiment: Test B pre/postemergence morningglory; format: in vivo, Ipomoea hederacea
Procedure, shortened: as §1

[8] = test system: pigweed; experiment: Test B pre/postemergence pigweed; format: in vivo, Amaranthus retroflexus
Procedure, shortened: as §1

[9] = test system: rape; experiment: Test B pre/postemergence rape; format: in vivo, Brassica napus
Procedure, shortened: as §1

[10] = test system: soybean; experiment: Test B pre/postemergence soybean; format: in vivo, Glycine max
Procedure, shortened: as §1

[11] = test system: sugar beet; experiment: Test B pre/postemergence sugar beet; format: in vivo, Beta vulgaris
Procedure, shortened: as §1

[12] = test system: velvetleaf; experiment: Test B pre/postemergence velvetleaf; format: in vivo, Abutilon theophrasti
Procedure, shortened: as §1

[13] = test system: wild oat; experiment: Test B pre/postemergence wild oat; format: in vivo, Avena fatua
Procedure, shortened: as §1

[14] = test system: rice; experiment: Test B flood test rice; format: in vivo, Oryza sativa
Procedure, shortened: (§2)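 Plants were grown to the 2-leaf stage before treatment with test chemical, then held in a greenhouse for twelve to sixteen days. Injury was visually rated against untreated controls on a 0–10 scale, where 0 is no effect and 10 is complete control.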

[15] = test system: duck salad; experiment: Test B flood test duck salad; format: in vivo, Heteranthera limosa
Procedure, shortened: as §2

[16] = test system: bamyardgrass; experiment: Test B flood test barnyardgrass; format: in vivo, Echinochloa crus-galli
Procedure, shortened: as §2

[17] = Preemergence, Rate 250 g/ha, scale of 0 to 10 where 0 is no effect and 10 is complete control
[18] = Preemergence, Rate 500 g/ha, scale of 0 to 10 where 0 is no effect and 10 is complete control
[19] = Rate 62 g/ha, Postemergence, scale 0 to 10 (0 no effect, 10 complete control)
[20] = Rate 125 g/ha, Postemergence, scale of 0 to 10 where 0 is no effect and 10 is complete control
[21] = Rate 125 g/ha, Preemergence, scale of 0 to 10 where 0 is no effect and 10 is complete control
[22] = Rate 250 g/ha, Postemergence, scale of 0 to 10 where 0 is no effect and 10 is complete control
[23] = Rate 500 g/ha, Postemergence, scale 0 to 10, 0 no effect, 10 complete control
[24] = Preemergence, Rate 62 g/ha, scale of 0 to 10 where 0 is no effect and 10 is complete control
[25] = Rate 62 g/ha, headed Pre-emergence (flood test species), scale 0 to 10 (0 no effect, 10 complete control)
[26] = Rate 125 g/ha, Pre-emergence, flood test species, scale 0 to 10 where 0 is no effect and 10 is complete control
[27] = Rate 250 g/ha, Pre-emergence, flood-test species, scale 0 to 10, 0 is no effect, 10 is complete control
[28] = Rate 500 g/ha, Pre-emergence, flood test species, scale 0 to 10 (0 no effect, 10 complete control)

CC(C)N(C(=O)n1oc(=O)n(CC(C)(C)C)c1=O)c1ccc(F)cc1F [Compound 277]
Blackgrass plant response rating [1, 17]: 10
Plant response rating, Blackgrass [1, 18]: 10
Blackgrass plant response rating [1, 19]: 2
Blackgrass plant response rating [1, 20]: 8
Blackgrass plant response rating [1, 21]: 9
Plant response rating, Blackgrass [1, 22]: 8
Blackgrass plant response rating [1, 23]: 8
B. signalgrass plant response rating [2, 17]: 10
Plant response rating, B. signalgrass [2, 18]: 10
B. signalgrass plant response rating [2, 19]: 0
B. signalgrass plant response rating [2, 20]: 0
B. signalgrass plant response rating [2, 21]: 9
Plant response rating, B. signalgrass [2, 22]: 1
B. signalgrass plant response rating [2, 23]: 3
Cocklebur plant response rating [3, 24]: 0
Cocklebur plant response rating [3, 17]: 0
Plant response rating, Cocklebur [3, 18]: 0
Cocklebur plant response rating [3, 19]: 0
Cocklebur plant response rating [3, 20]: 0
Cocklebur plant response rating [3, 21]: 0
Plant response rating, Cocklebur [3, 22]: 1
Cocklebur plant response rating [3, 23]: 2
Corn plant response rating [4, 24]: 0
Corn plant response rating [4, 17]: 0
Plant response rating, Corn [4, 18]: 3
Corn plant response rating [4, 19]: 0
Corn plant response rating [4, 20]: 0
Corn plant response rating [4, 21]: 0
Plant response rating, Corn [4, 22]: 0
Corn plant response rating [4, 23]: 0
Crabgrass plant response rating [5, 24]: 4
Crabgrass plant response rating [5, 17]: 9
Plant response rating, Crabgrass [5, 18]: 10
Crabgrass plant response rating [5, 19]: 1
Crabgrass plant response rating [5, 20]: 2
Crabgrass plant response rating [5, 21]: 4
Plant response rating, Crabgrass [5, 22]: 5
Crabgrass plant response rating [5, 23]: 6
Giant foxtail plant response rating [6, 24]: 10
Giant foxtail plant response rating [6, 17]: 10
Plant response rating, Giant foxtail [6, 18]: 10
Giant foxtail plant response rating [6, 19]: 2
Giant foxtail plant response rating [6, 20]: 3
Giant foxtail plant response rating [6, 21]: 10
Plant response rating, Giant foxtail [6, 22]: 4
Giant foxtail plant response rating [6, 23]: 6
Morningglory plant response rating [7, 24]: 0
Morningglory plant response rating [7, 17]: 0
Plant response rating, Morningglory [7, 18]: 0
Morningglory plant response rating [7, 19]: 7
Morningglory plant response rating [7, 20]: 8
Morningglory plant response rating [7, 21]: 0
Plant response rating, Morningglory [7, 22]: 8
Morningglory plant response rating [7, 23]: 9
Redroot pigweed plant response rating [8, 17]: 0
Plant response rating, Redroot pigweed [8, 18]: 5
Redroot pigweed plant response rating [8, 19]: 1
Redroot pigweed plant response rating [8, 20]: 2
Redroot pigweed plant response rating [8, 21]: 0
Plant response rating, Redroot pigweed [8, 22]: 4
Redroot pigweed plant response rating [8, 23]: 5
Rape plant response rating [9, 17]: 1
Plant response rating, Rape [9, 18]: 2
Rape plant response rating [9, 19]: 0
Rape plant response rating [9, 20]: 2
Rape plant response rating [9, 21]: 1
Plant response rating, Rape [9, 22]: 3
Rape plant response rating [9, 23]: 3
Soybean plant response rating [10, 24]: 0
Soybean plant response rating [10, 17]: 0
Plant response rating, Soybean [10, 18]: 4
Soybean plant response rating [10, 19]: 3
Soybean plant response rating [10, 20]: 4
Soybean plant response rating [10, 21]: 0
Plant response rating, Soybean [10, 22]: 6
Soybean plant response rating [10, 23]: 8
Sugarbeets plant response rating [11, 17]: 2
Plant response rating, Sugarbeets [11, 18]: 7
Sugarbeets plant response rating [11, 19]: 1
Sugarbeets plant response rating [11, 20]: 2
Sugarbeets plant response rating [11, 21]: 1
Plant response rating, Sugarbeets [11, 22]: 4
Sugarbeets plant response rating [11, 23]: 5
Velvetleaf plant response rating [12, 24]: 0
Velvetleaf plant response rating [12, 17]: 6
Plant response rating, Velvetleaf [12, 18]: 7
Velvetleaf plant response rating [12, 19]: 1
Velvetleaf plant response rating [12, 20]: 1
Velvetleaf plant response rating [12, 21]: 1
Plant response rating, Velvetleaf [12, 22]: 1
Velvetleaf plant response rating [12, 23]: 1
Wild oats plant response rating [13, 17]: 7
Plant response rating, Wild oats [13, 18]: 8
Wild oats plant response rating [13, 19]: 0
Wild oats plant response rating [13, 20]: 0
Plant response rating, Wild oats [13, 22]: 0
Wild oats plant response rating [13, 23]: 2
Rice plant response rating [14, 25]: 0
Rice plant response rating [14, 26]: 0
Rice plant response rating [14, 27]: 0
Rice plant response rating [14, 28]: 2
Ducksalad plant response rating [15, 25]: 1
Ducksalad plant response rating [15, 26]: 2
Ducksalad plant response rating [15, 27]: 2
Ducksalad plant response rating [15, 28]: 2
Barnyardgrass plant response rating [16, 25]: 2
Barnyardgrass plant response rating [16, 26]: 2
Barnyardgrass plant response rating [16, 27]: 1
Barnyardgrass plant response rating [16, 28]: 9
